# From patent US20050119305A1, “Il-6 production inhibitors” (priority 2001, published 2005)
# System: IL-6 production from A549 cells
# Test: Inhibitory activity on IL-6 production from A549 cells (TNF-α stimulated, ELISA)
# Format: cell-based
# Settings: A549 cells (human lung epithelial cell line), TNF-α stimulation, 24 hours incubation, IL-6 in supernatant by ELISA; read-out: 50% inhibitory concentration (IC50) on IL-6 production
# Protocol: According to following experiments, it is confirmed that the compound of the present invention has an inhibitory activity on IL-6 production. • (1) The Measurement of an Inhibitory Activity on IL-6 Production from A549 Cells Method:
# 1.5×10^4 of A549 cells (human lung epithelial cell line) were suspended in 100 μL of Dulbecco's Modified Eagle Medium (DMEM) containing 0.5% fetal bovine serum (abbreviated as FBS) and incubated for a day and night in 96 well-microplate. 20 μL of the test compound dissolved in dimethylsulfoxide (DMSO) at various concentrations and 80 μl of tumor necrosis factor-α (TNF-α (Genzyme Co., cat. No. TNF-H)) dissolved in serum-free DMEM at the concentration of 12.5 ng/mL were added thereto. After the incubation for 24 hours, the supernatant (100 μL) was collected to measure the amount of IL-6 being produced using enzyme linked immuno […] assay (ELISA) (R&D Systems Co., cat. No. D6050). Then the inhibitory activity of the test compound was calculated and the 50% inhibitory concentration (IC50) was determined.
smiles,measurement,value
O=C(CCCCCNC(=O)c1ccc(-c2ccccc2)cc1)NO [Example 2],IC50,0.18 µM
